What was measured:
Test in all cases: Post-emergence herbicidal activity test (stem and leaf spray, pot culture)
Format in all cases: in vivo
Details in all cases: 3 weeks after spraying
[1] = test system: Abutilon theophrasti
Summary of the method: (§1)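 Pot-grown weeds in loam (pH 7, 1.63% organic matter) were spray-treated on stems and leaves at the 2- to 3-leaf stage with compound in acetone/Tween 80 plus 1.5 liters/ha methyl oleate at 10, 5 or 2.5 g/mu. Fresh-weight growth control was scored 3 weeks later as grades 0–5.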

[2] = test system: Amaranthus retroflexus
Summary of the method: as §1

[3] = test system: Setaria viridis
Summary of the method: as §1

[4] = test system: Portulaca oleracea
Summary of the method: as §1

[5] = test system: Echinochloa crusgalli
Summary of the method: as §1

[6] = test system: Trifoliumre pensL.
Summary of the method: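 Pot-grown weeds in loam (pH 7), greenhouse at 20–30 °C, sprayed once post-emergence at the 2–3-leaf stage. Compound in acetone with Tween 80 plus methyl oleate oil (1.5 L/ha), applied at 10, 5 and 2.5 g/mu by spray tower. Effect scored 3 weeks after spraying, averaged over three repeats.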

| SMILES | Post-emergence herbicidal activity, A. theophrasti (grade) ([1]; dosage 2.5 g/mu) | Post-emergence herbicidal activity, A. theophrasti (grade) ([1]; dosage 5 g/mu) | Post-emergence herbicidal activity, A. theophrasti (grade) ([1]; dosage 10 g/mu) | Post-emergence herbicidal activity, A. retroflexus (grade) ([2]; dosage 2.5 g/mu) | Post-emergence herbicidal activity, A. retroflexus (grade) ([2]; dosage 5 g/mu) | Post-emergence herbicidal activity, A. retroflexus (grade) ([2]; dosage 10 g/mu) | Post-emergence herbicidal activity, S. viridis (grade) ([3]; dosage 2.5 g/mu) | Post-emergence herbicidal activity, S. viridis (grade) ([3]; dosage 5 g/mu) | Post-emergence herbicidal activity, S. viridis (grade) ([3]; dosage 10 g/mu) | Post-emergence herbicidal activity, P. oleracea (grade) ([4]; dosage 2.5 g/mu) | Post-emergence herbicidal activity, P. oleracea (grade) ([4]; dosage 5 g/mu) | Post-emergence herbicidal activity, P. oleracea (grade) ([4]; dosage 10 g/mu) | Post-emergence herbicidal activity, E. crusgalli (grade) ([5]; dosage 2.5 g/mu) | Post-emergence herbicidal activity, E. crusgalli (grade) ([5]; dosage 5 g/mu) | Post-emergence herbicidal activity, E. crusgalli (grade) ([5]; dosage 10 g/mu) | Post-emergence herbicidal activity, Trifoliumre pensL. (grade) ([6]; dosage 2.5 g/mu) | Post-emergence herbicidal activity, Trifoliumre pensL. (grade) ([6]; dosage 5 g/mu) | Post-emergence herbicidal activity, Trifoliumre pensL. (grade) ([6]; dosage 10 g/mu) |
| --- | --- | --- | --- | --- | --- | --- | --- | --- | --- | --- | --- | --- | --- | --- | --- | --- | --- | --- |
| Cc1cccc(-c2nnc(COc3cc(N4C(=O)C5=C(CCCC5)C4=O)c(F)cc3Cl)o2)c1 [Compound B3, 2-(4-chloro-2-fluoro-5-(5-(3-tolyl)-1,3,4-oxadiazole-2-methoxy)phenyl)-4,5,6,7-tetrahydro-1H-isoindole-1,3(2H)-dione] | 5 (Grade 5: the growth control rate is greater than or equal to 85%) | 5 (Grade 5: the growth control rate is greater than or equal to 85%) | 5 (Grade 5: the growth control rate is greater than or equal to 85%) | 5 (Grade 5: the growth control rate is greater than or equal to 85%) | 5 (Grade 5: the growth control rate is greater than or equal to 85%) | 5 (Grade 5: the growth control rate is greater than or equal to 85%) | 2 (Grade 2: the growth control rate is greater than or equal to 20% and less than 40%) | 3 (Grade 3: the growth control rate is greater than or equal to 40% and less than 60%) | 4 (Grade 4: the growth control rate is greater than or equal to 60% and less than 85%) | 5 (Grade 5: the growth control rate is greater than or equal to 85%) | 5 (Grade 5: the growth control rate is greater than or equal to 85%) | 5 (Grade 5: the growth control rate is greater than or equal to 85%) | 1 (Grade 1: the growth control rate is greater than or equal to 5% and less than 20%) | 2 (Grade 2: the growth control rate is greater than or equal to 20% and less than 40%) | 3 (Grade 3: the growth control rate is greater than or equal to 40% and less than 60%) | 5 (Grade 5: the growth control rate is greater than or equal to 85%) | 5 (Grade 5: the growth control rate is greater than or equal to 85%) | 5 (Grade 5: the growth control rate is greater than or equal to 85%) |
| O=C1C2=C(CCCC2)C(=O)N1c1cc(OCc2nnc(-c3ccccc3F)o2)c(Cl)cc1F [Compound B4] | 4 (Grade 4: the growth control rate is greater than or equal to 60% and less than 85%) | 5 (Grade 5: the growth control rate is greater than or equal to 85%) | 5 (Grade 5: the growth control rate is greater than or equal to 85%) | 5 (Grade 5: the growth control rate is greater than or equal to 85%) | 5 (Grade 5: the growth control rate is greater than or equal to 85%) | 5 (Grade 5: the growth control rate is greater than or equal to 85%) | 2 (Grade 2: the growth control rate is greater than or equal to 20% and less than 40%) | 3 (Grade 3: the growth control rate is greater than or equal to 40% and less than 60%) | 4 (Grade 4: the growth control rate is greater than or equal to 60% and less than 85%) | 4 (Grade 4: the growth control rate is greater than or equal to 60% and less than 85%) | 5 (Grade 5: the growth control rate is greater than or equal to 85%) | 5 (Grade 5: the growth control rate is greater than or equal to 85%) | 1 (Grade 1: the growth control rate is greater than or equal to 5% and less than 20%) | 2 (Grade 2: the growth control rate is greater than or equal to 20% and less than 40%) | 3 (Grade 3: the growth control rate is greater than or equal to 40% and less than 60%) | 5 (Grade 5: the growth control rate is greater than or equal to 85%) | 5 (Grade 5: the growth control rate is greater than or equal to 85%) | 5 (Grade 5: the growth control rate is greater than or equal to 85%) |
| O=C1C2=C(CCCC2)C(=O)N1c1cc(OCc2nnc(-c3ccccc3Cl)o2)c(Cl)cc1F [Compound B5] | 5 (Grade 5: the growth control rate is greater than or equal to 85%) | 5 (Grade 5: the growth control rate is greater than or equal to 85%) | 5 (Grade 5: the growth control rate is greater than or equal to 85%) | 5 (Grade 5: the growth control rate is greater than or equal to 85%) | 5 (Grade 5: the growth control rate is greater than or equal to 85%) | 5 (Grade 5: the growth control rate is greater than or equal to 85%) | 2 (Grade 2: the growth control rate is greater than or equal to 20% and less than 40%) | 3 (Grade 3: the growth control rate is greater than or equal to 40% and less than 60%) | 4 (Grade 4: the growth control rate is greater than or equal to 60% and less than 85%) | 5 (Grade 5: the growth control rate is greater than or equal to 85%) | 5 (Grade 5: the growth control rate is greater than or equal to 85%) | 5 (Grade 5: the growth control rate is greater than or equal to 85%) | 1 (Grade 1: the growth control rate is greater than or equal to 5% and less than 20%) | 2 (Grade 2: the growth control rate is greater than or equal to 20% and less than 40%) | 3 (Grade 3: the growth control rate is greater than or equal to 40% and less than 60%) | 5 (Grade 5: the growth control rate is greater than or equal to 85%) | 5 (Grade 5: the growth control rate is greater than or equal to 85%) | 5 (Grade 5: the growth control rate is greater than or equal to 85%) |
